Where two headings read alike, the source gives them in different places.
Assays:
[1] = system: 5-HT1A agonist discriminative stimulus cue; conditions: 0.01-1 mg/kg i.m.; cited from earlier work
aged rhesus monkeys = conditions: 1 mg/kg p.o.; cited from earlier work
[2] = system: release of glutamate and acetylcholine; conditions: dentate gyrus of the hippocampus; cited from earlier work
marmosets = conditions: 2 mg/kg i.m., visual spatial discrimination; cited from earlier work
primates = conditions: cited from earlier work
[3] = system: rhythmic bladder-voiding contractions; assay: Rhythmic bladder-voiding contractions induced by bladder filling in anaesthetised rats; format: in vivo, rat; conditions: for ED50: Rattus norvegicus
Method: Female Sprague-Dawley rats weighing 225-275 g (Crl: CD® (SD) IGS BR, Charles River Italia) were used. The animals were housed with free access to food and water and maintained on a forced 12-hour alternating light-dark cycle at 22-24° C. for at least one week, except during the experiment. The activity on rhythmic bladder voiding contractions was evaluated according to the method of Dray (Dray J., Pharmacol. Methods, 13:157, 1985), with some modifications as in Guarneri (Guarneri, Pharmacol. Res. 27:173, 1993). Briefly, the rats were anaesthetised by subcutaneous injection of 1.25 g/kg (5 ml/kg) urethane, after which the urinary bladder was catheterised via the urethra using PE 50 polyethylene tubing filled with physiological saline. The catheter was tied in place with a ligature around the external urethral orifice and was connected to conventional pressure transducers (Statham P23 ID/P23 XL). […] The bladder was then filled via the recording catheter by incremental volumes of warm (37° C.) saline until reflex bladder-voiding contractions occurred (usually 0.8-1.5 ml). For intravenous injection of bioactive compounds, PE 50 polyethylene tubing filled with physiological saline was inserted into the jugular vein.
From the cystometrogram, the number of contractions recorded 15 minutes before (basal values) and after treatment, as well as the mean amplitude of these contractions (mean height of the peaks in mmHg), was evaluated.
Since most compounds produced an effect that was relatively rapid in onset and led to a complete cessation of bladder contractions, bioactivity was conveniently estimated by measuring the duration of bladder quiescence (i.e., the time during which no contractions occurred). The number of tested animals showing a reduction in the number of contractions higher than 30% of that observed in the basal period was recorded too.
The extrapolated doses which induced a reduction in the number of contractions greater than 30% in 50% of the treated rats (ED50) were also evaluated by the method of Bliss (Bliss C. I., Quart J. Pharm. Pharmacol. 11, 192-216, 1938).

urinary bladder = assay: Cystometric parameters in conscious rats after oral administration; format: in vivo, rat; conditions: 3 mg/kg p.o., 1-5 h after treatment
Method: Male Sprague-Dawley rats [Crl: CD® (SD) IGS BR] of 300-400 g body weight supplied by Charles River Italia were used. The animals were housed with free access to food and water and maintained on a forced 12-hour-light/12-hour-dark cycle at 22-24° C. of temperature, except during the experiment. To quantify urodynamic parameters in conscious rats, cystometrographic studies were performed according to the procedure previously reported (Guarneri et al., Pharmacol. Res. 24: 175, 1991).
Briefly, the rats were anaesthetised by intraperitoneal administration of 3 ml/kg of Equithensin solution (pentobarbital 30 mg/kg and chloral hydrate 125 mg/kg) and placed in a supine position. An approximately 10 mm-long midline incision was made in the shaved and cleaned abdominal wall. The urinary bladder was gently freed from adhering tissues, emptied and then cannulated via an incision in the bladder body, using a polyethylene cannula (0.58-mm internal diameter, 0.96-mm external diameter) which was permanently sutured with silk thread. The cannula was exteriorised through a subcutaneous tunnel in the retroscapular area, where it was connected to a plastic adapter in order to avoid the risk of removal by the animal. For drug testing, the rats were utilised one day after implantation.
On the day of the experiment, the rats were placed in modified Bollman cages, i.e., restraining cages that were large enough to permit the rats to adopt a normal crouched posture, but narrow enough to prevent turning around. After a stabilisation period of about 20 minutes, the free tip of the bladder cannula was connected through a T-shaped tube to a pressure transducer (Statham P23XL) and to a peristaltic pump (Gilson minipuls 2) for continues infusion of a warm (37° C.) saline solution into the urinary bladder, at a constant rate of 0.1 ml/minute. The intraluminal-pressure signal during infusion of saline into the bladder was continuously recorded on a polygraph (Rectigraph-8K San-ei with BM614/2 amplifier from Biomedica Mangoni). The cystometrogram was used to evaluate the urodynamic parameters of bladder volume capacity (BVC) and micturition pressure (MP). BVC (ml) is defined as the volume of saline infused into the bladder necessary to induce detrusor contraction followed by micturition. MP (mmHg) is defined as the maximal intravesical pressure caused by contraction during micturition. Basal BVC and MP values were evaluated as mean of the values observed in the cystometrograms recorded in an initial period of 30-60 minutes. Following determination of basal BVC and MP, the infusion was interrupted and the test compounds were administered orally by a stomach tube. Bladder infusion was resumed and changes in BVC and MP were evaluated from the mean values obtained in the cystometrograms observed during 1, 2, 3, 4 and 5 hours after treatment. Compounds were administered in a volume of 2 ml/kg and groups of control animals received the same amount of vehicle (0.5% methocel in water) orally.
Data were expressed as mean ±standard error. The percent changes of BVC and MP versus the basal values, as well as Δ values (difference in ml or mmHg) of BVC and MP (BVC or MP at time “x” minus basal value), were also evaluated for each rat/time. In the figures, data were reported as % changes versus basal values.
Statistical analysis on BVC and MP values, as well as on Δ values, was performed by S.A.S./STAT software, version 6.12. The observed differences between vehicle (control) and test treatments were evaluated on Δ values of BVC and MP, whereas the differences between the values at different times versus basal values were analyzed on original BVC and MP data.

SMILES: C[C@H](CN(C(=O)c1ccc(C#N)cc1)c1ccccn1)N1CCN(c2cccc3c2OCCO3)CC1 [lecozotan]
- blockade of the 5-HT1A agonist discriminative stimulus cue [1]: dose-related blockade
- substitution for 8-OH-DPAT [1]: did not substitute
- task performance efficiency (aged rhesus monkeys): significant improvement
- potassium chloride-stimulated release of glutamate and acetylcholine [2]: significantly potentiated
- learning deficits induced by MK-801 and by cholinergic lesions of the hippocampus (marmosets): reversed

SMILES: COc1ccccc1N1CCN(CCN(C(=O)C2CCCCC2)c2ccccn2)CC1 [WAY-100635]
- cognitive deficits induced by glutamatergic and cholinergic dysfunction (primates): can alleviate

SMILES: CCN(CC)CC#CCOC(=O)C(O)(c1ccccc1)C1CCCCC1 (stereo not drawn) [Oxybutynin, oxybutynin]
- ED50 ([3]; intravenous administration, n.a. = not active, no significant reduction of the height of the peaks, read-out: ED50 (amplitude) (extrapolated dose inducing a 30% reduction of amplitude of the contractions in 50% of treated rats)): 0.24 mg/kg
- ED50 ([3]; intravenous administration, read-out: ED50 (frequency) (extrapolated dose inducing a reduction of the number of contractions >30% in 50% of treated rats)): > 10 mg/kg
- frequency of bladder contractions ([3]; at 240 μg/kg): did not lower the frequency
- ED10 min (extrapolated dose inducing 10 minutes of disappearance of the contractions) ([3]; intravenous administration): 7.77 mg/kg
- bladder volume capacity (BVC) (urinary bladder): slight, not-significant increase
- micturition pressure (MP) (urinary bladder): greatly reduced
